Read-outs that look alike come from different tables or passages of the source.
Key:
[1] = test system: Amaranthus rudis (AMATA), tall water hemp; assay: Postemergence herbicide evaluation, growth of Amaranthus rudis (AMATA); type: in vivo; settings: Amaranthus tuberculatus, post-emergence, read-out: Ave. AMATA, percent reduction in plant size relative to the untreated control; for pest or weed control at 280 g/ha: 280 g ae/ha; for pest or weed control at 560 g/ha: 560 g ae/ha
[2] = Volatility of compounds measured by thermogravimetric analysis (TGA); type: physicochemical
[3] = test system: glyphosate resistant Conyza canadensis (L.) (ERICA), horseweed; assay: Postemergence herbicide evaluation, growth of Conyza canadensis (ERICA); type: in vivo; settings: Erigeron canadensis, post-emergence, read-out: Ave. ERICA, percent reduction in plant size relative to the untreated control; for pest or weed control at 280 g/ha: 280 g ae/ha; for pest or weed control at 560 g/ha: 560 g ae/ha
[4] = test system: weeds ABUTH, AMATA, AMBEL, CHEAL, ERICA; assay: Postemergence herbicide evaluation, overall average % weed control (ABUTH, AMATA, AMBEL, CHEAL, ERICA); type: in vivo; settings: post-emergence, read-out: Overall Ave % Weed Control; for pest or weed control at 280 g/ha: 280 g ae/ha; for pest or weed control at 560 g/ha: 560 g ae/ha
[5] = test system: Abutilon theophrasti (ABUTH), velvetleaf; assay: Postemergence herbicide evaluation, growth of Abutilon theophrasti (ABUTH); type: in vivo; settings: Abutilon theophrasti, post-emergence, read-out: AVE. ABUTH, percent reduction in plant size relative to the untreated control; for pest or weed control at 280 g/ha: 280 g ae/ha; for pest or weed control at 560 g/ha: 560 g ae/ha
[6] = test system: Ambrosia artemisiifolia (AMBEL), common ragweed; assay: Postemergence herbicide evaluation, growth of Ambrosia artemisiifolia (AMBEL); type: in vivo; settings: Ambrosia artemisiifolia, post-emergence, read-out: AVE. AMBEL, percent reduction in plant size relative to the untreated control; for pest or weed control at 280 g/ha: 280 g ae/ha; for pest or weed control at 560 g/ha: 560 g ae/ha
[7] = test system: Chenopodium album (CHEAL), common lambsquarters; assay: Postemergence herbicide evaluation, growth of Chenopodium album (CHEAL); type: in vivo; settings: Chenopodium album, post-emergence, read-out: Ave. CHEAL, percent reduction in plant size relative to the untreated control; for pest or weed control at 280 g/ha: 280 g ae/ha; for pest or weed control at 560 g/ha: 560 g ae/ha

SMILES | pest or weed control at 280 g/ha ([1]; 168 h, 7 DAA) | pest or weed control at 560 g/ha ([1]; 168 h, 7 DAA) | pest or weed control at 280 g/ha ([1]; 336 h, 14 DAA) | pest or weed control at 560 g/ha ([1]; 336 h, 14 DAA) | pest or weed control at 280 g/ha ([1]; 504 h, 21 DAA) | pest or weed control at 560 g/ha ([1]; 504 h, 21 DAA) | TGA Data (rate of weight loss, volatility) [2] | pest or weed control at 280 g/ha ([3]; 168 h, 7 DAA) | pest or weed control at 560 g/ha ([3]; 168 h, 7 DAA) | pest or weed control at 280 g/ha ([3]; 336 h, 14 DAA) | pest or weed control at 560 g/ha ([3]; 336 h, 14 DAA) | pest or weed control at 280 g/ha ([3]; 504 h, 21 DAA) | pest or weed control at 560 g/ha ([3]; 504 h, 21 DAA) | pest or weed control at 280 g/ha ([4]; 168 h, 7 DAA) | pest or weed control at 560 g/ha ([4]; 168 h, 7 DAA) | pest or weed control at 280 g/ha ([4]; 336 h, 14 DAA) | pest or weed control at 560 g/ha ([4]; 336 h, 14 DAA) | pest or weed control at 280 g/ha ([4]; 504 h, 21 DAA) | pest or weed control at 560 g/ha ([4]; 504 h, 21 DAA) | pest or weed control at 280 g/ha ([5]; 168 h, 7 DAA) | also measured
O=C(COc1ccc(Cl)cc1Cl)Nc1cc[nH]n1 [Compound D21] | 72.5% | 90% | 88% | 90% | 67.5% | 100% | 0.07078 µg/min | 82.5% | 80% | 100% | 100% | 95% | 98% | 69% | 76.5% | 78.1% | 86.5% | 80.4% | 93.8% | 32.5% | pest or weed control at 560 g/ha ([5]; 168 h, 7 DAA): 47.5%; pest or weed control at 280 g/ha ([5]; 336 h, 14 DAA): 37.5%; pest or weed control at 560 g/ha ([5]; 336 h, 14 DAA): 57.5%; pest or weed control at 280 g/ha ([5]; 504 h, 21 DAA): 47.5%; pest or weed control at 560 g/ha ([5]; 504 h, 21 DAA): 75%; pest or weed control at 280 g/ha ([6]; 168 h, 7 DAA): 75%; pest or weed control at 560 g/ha ([6]; 168 h, 7 DAA): 85%; pest or weed control at 280 g/ha ([6]; 336 h, 14 DAA): 70%; pest or weed control at 560 g/ha ([6]; 336 h, 14 DAA): 92.5%; pest or weed control at 280 g/ha ([6]; 504 h, 21 DAA): 99.5%; pest or weed control at 560 g/ha ([6]; 504 h, 21 DAA): 100%; pest or weed control at 280 g/ha ([7]; 168 h, 7 DAA): 82.5%; pest or weed control at 560 g/ha ([7]; 168 h, 7 DAA): 80%; pest or weed control at 280 g/ha ([7]; 336 h, 14 DAA): 95%; pest or weed control at 560 g/ha ([7]; 336 h, 14 DAA): 92.5%; pest or weed control at 280 g/ha ([7]; 504 h, 21 DAA): 92.5%; pest or weed control at 560 g/ha ([7]; 504 h, 21 DAA): 96%
CC(C)ONC(=O)COc1ccc(Cl)cc1Cl [Compound D23] | 82.5% | 82.5% | 90% | 90% | 72.5% | 87.5% | 0.6973 µg/min | 80% | 77.5% | 100% | 97.5% | 99% | 100% | 78% | 82% | 92% | 94.1% | 92.9% | 96.5% | 70% | pest or weed control at 560 g/ha ([5]; 168 h, 7 DAA): 90%; pest or weed control at 280 g/ha ([5]; 336 h, 14 DAA): 93.5%; pest or weed control at 560 g/ha ([5]; 336 h, 14 DAA): 99%; pest or weed control at 280 g/ha ([5]; 504 h, 21 DAA): 99%; pest or weed control at 560 g/ha ([5]; 504 h, 21 DAA): 100%; pest or weed control at 280 g/ha ([6]; 168 h, 7 DAA): 77.5%; pest or weed control at 560 g/ha ([6]; 168 h, 7 DAA): 75%; pest or weed control at 280 g/ha ([6]; 336 h, 14 DAA): 80%; pest or weed control at 560 g/ha ([6]; 336 h, 14 DAA): 85%; pest or weed control at 280 g/ha ([6]; 504 h, 21 DAA): 100%; pest or weed control at 560 g/ha ([6]; 504 h, 21 DAA): 100%; pest or weed control at 280 g/ha ([7]; 168 h, 7 DAA): 80%; pest or weed control at 560 g/ha ([7]; 168 h, 7 DAA): 85%; pest or weed control at 280 g/ha ([7]; 336 h, 14 DAA): 96.5%; pest or weed control at 560 g/ha ([7]; 336 h, 14 DAA): 99%; pest or weed control at 280 g/ha ([7]; 504 h, 21 DAA): 94%; pest or weed control at 560 g/ha ([7]; 504 h, 21 DAA): 95%
Cc1nccc(NC(=O)COc2ccc(Cl)cc2Cl)c1C [Compound D26] | 72.5% | 85% | 88.5% | 87.5% | 75% | 87.5% | 0.09713 µg/min | 57.5% | 60% | 91.5% | 100% | 62.5% | 72.5% | 64.5% | 73.5% | 77.5% | 83% | 78.5% | 85% | 42.5% | pest or weed control at 560 g/ha ([5]; 168 h, 7 DAA): 55%; pest or weed control at 280 g/ha ([5]; 336 h, 14 DAA): 52.5%; pest or weed control at 560 g/ha ([5]; 336 h, 14 DAA): 65%; pest or weed control at 280 g/ha ([5]; 504 h, 21 DAA): 62.5%; pest or weed control at 560 g/ha ([5]; 504 h, 21 DAA): 70%; pest or weed control at 280 g/ha ([6]; 168 h, 7 DAA): 75%; pest or weed control at 560 g/ha ([6]; 168 h, 7 DAA): 90%; pest or weed control at 280 g/ha ([6]; 336 h, 14 DAA): 70%; pest or weed control at 560 g/ha ([6]; 336 h, 14 DAA): 85%; pest or weed control at 280 g/ha ([6]; 504 h, 21 DAA): 100%; pest or weed control at 560 g/ha ([6]; 504 h, 21 DAA): 100%; pest or weed control at 280 g/ha ([7]; 168 h, 7 DAA): 75%; pest or weed control at 560 g/ha ([7]; 168 h, 7 DAA): 77.5%; pest or weed control at 280 g/ha ([7]; 336 h, 14 DAA): 85%; pest or weed control at 560 g/ha ([7]; 336 h, 14 DAA): 77.5%; pest or weed control at 280 g/ha ([7]; 504 h, 21 DAA): 92.5%; pest or weed control at 560 g/ha ([7]; 504 h, 21 DAA): 95%
N/C(=N\OC(=O)COc1ccc(Cl)cc1Cl)c1ccccc1 [Compound A3, N′-(2-(2,4-Dichlorophenoxy)acetoxy)benzimidamide] | 75% | 78% | 75% | 90% | 83% | 70% | 1 µg/min | 68% | 75% | 85% | 90% | 90% | 95% | 67% | 73% | 75% | 85% | 81% | 83% | 53% | pest or weed control at 560 g/ha ([5]; 168 h, 7 DAA): 68%; pest or weed control at 280 g/ha ([5]; 336 h, 14 DAA): 55%; pest or weed control at 560 g/ha ([5]; 336 h, 14 DAA): 68%; pest or weed control at 280 g/ha ([5]; 504 h, 21 DAA): 58%; pest or weed control at 560 g/ha ([5]; 504 h, 21 DAA): 72%; pest or weed control at 280 g/ha ([6]; 168 h, 7 DAA): 63%; pest or weed control at 560 g/ha ([6]; 168 h, 7 DAA): 75%; pest or weed control at 280 g/ha ([6]; 336 h, 14 DAA): 78%; pest or weed control at 560 g/ha ([6]; 336 h, 14 DAA): 95%; pest or weed control at 280 g/ha ([6]; 504 h, 21 DAA): 90%; pest or weed control at 560 g/ha ([6]; 504 h, 21 DAA): 90%; pest or weed control at 280 g/ha ([7]; 168 h, 7 DAA): 75%; pest or weed control at 560 g/ha ([7]; 168 h, 7 DAA): 68%; pest or weed control at 280 g/ha ([7]; 336 h, 14 DAA): 83%; pest or weed control at 560 g/ha ([7]; 336 h, 14 DAA): 83%; pest or weed control at 280 g/ha ([7]; 504 h, 21 DAA): 85%; pest or weed control at 560 g/ha ([7]; 504 h, 21 DAA): 87%

Reference: patent publication US20260042731A1, “(2,4-DICHLOROPHENOXY)ACETIC ACID ANALOGS” (CORTEVA AGRISCIENCE LLC, priority 2022, published 2026)
